The structures appear in SMILES notation. pIC50: −log10 of the molar value.

This experiment addresses T1, oestrogen receptor (ER) (Homo sapiens, UniProt P03372).
T1 construct: These MVLN cells express, along with the functional oestrogen receptor (ER), a reporter construct; endogenous in cells; host or cells: MVLN cells (MCF7 derivative with ER-responsive luciferase reporter)
T1 sequence (P03372 1-595): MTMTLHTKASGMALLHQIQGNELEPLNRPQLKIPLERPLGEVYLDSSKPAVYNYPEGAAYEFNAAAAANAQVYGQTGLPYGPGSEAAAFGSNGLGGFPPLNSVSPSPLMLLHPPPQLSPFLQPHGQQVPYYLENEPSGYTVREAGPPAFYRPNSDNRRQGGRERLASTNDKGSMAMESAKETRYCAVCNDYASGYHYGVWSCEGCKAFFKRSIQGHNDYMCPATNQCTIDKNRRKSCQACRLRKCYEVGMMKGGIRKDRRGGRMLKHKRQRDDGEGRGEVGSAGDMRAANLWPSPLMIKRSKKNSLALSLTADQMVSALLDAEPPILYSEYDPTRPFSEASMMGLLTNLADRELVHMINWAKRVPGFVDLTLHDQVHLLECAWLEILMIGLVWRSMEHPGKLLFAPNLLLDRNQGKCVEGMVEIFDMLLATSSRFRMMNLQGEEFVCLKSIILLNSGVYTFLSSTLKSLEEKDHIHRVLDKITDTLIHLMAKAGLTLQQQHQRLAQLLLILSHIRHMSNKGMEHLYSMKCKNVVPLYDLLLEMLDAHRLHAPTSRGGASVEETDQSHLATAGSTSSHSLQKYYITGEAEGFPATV
The experiment is described as follows: Anti-oestrogenic action in MVLN cells (inhibition of estradiol-induced luciferase, transactivation antagonism). Type of experiment: cell-based. The settings on record: inhibition of estradiol-induced luciferase activity, read-out: Anti-oestrogenic action in vitro: MVLN transactivation antagonism IC50. An excerpt:
The anti-oestrogenic action of the claimed pharmacological compounds was investigated in so-called MVLN cells in vitro. MVLN cells are derivatives of the hormone-responsive MCF7 breast cancer cells known by a person skilled in the art. These MVLN cells express, along with the functional oestrogen receptor (ER), a reporter construct, which under ER-activation expresses luciferase. Determination of the activity of the induced luciferase permits a direct conclusion on the oestrogen properties of substances. To investigate the anti-oestrogenic properties of the pharmacological compounds, they were investigated in the presence of oestrogen for their potential for inhibiting the luciferase signal induced by estradiol.
The claimed pharmacological test substances were investigated in MVLN cells for their anti-oestrogenic potential, as described (see Table 2).

Regarding `CN(CCCCCCC1=C(c2ccc(F)c(O)c2)CCCc2cc(O)ccc21)CCCCCS(=O)(=O)CCCC(F)(F)C(F)(F)F` [Example 33, 8-(4-Fluoro-3-hydroxyphenyl)-9-[6-(methyl{5-[(4,4,5,5,5-pentafluoropentyl)sulphonyl]pentyl}amino)hexyl]-6,7-dihydro-5H-benzo[7]annulen-3-ol], the pIC50 was 8.22. Then `CN(CCCCCC1=C(c2ccc(F)c(O)c2)CCCc2cc(O)ccc21)CCCCS(=O)(=O)CCCC(F)(F)C(F)(F)F` [Example 25, 8-(4-Fluoro-3-hydroxyphenyl)-9-[5-(methyl{4-[(4,4,5,5,5-pentafluoropentyl)sulphonyl]butyl}amino)pentyl]-6,7-dihydro-5H-benzo[7]annulen-3-ol], with 7.62. Consider `CN(CCCCCCC1=C(c2cccc(O)c2)CCCc2cc(O)ccc21)CCCCC[S+]([O-])CCCC(F)(F)C(F)(F)F` (racemic) [Example 16, 8-(3-Hydroxyphenyl)-9-[6-(methyl{5-[(RS)-(4,4,5,5,5-pentafluoropentyl)sulphinyl]pentyl}amino)hexyl]-6,7-dihydro-5H-benzo[7]annulen-3-ol], for which the pIC50 was 8.70. For `CN(CCCCCCC1=C(c2ccc(F)c(O)c2)CCCc2cc(O)c(F)cc21)CCCS(=O)(=O)CCCC(F)(F)F` [Example 127, 2-Fluoro-8-(4-fluoro-3-hydroxyphenyl)-9-[6-(methyl{3-[(4,4,4-trifluorobutyl)sulphonyl]propyl}amino)hexyl]-6,7-dihydro-5H-benzo[7]annulen-3-ol], the pIC50 is 8.22. `CN(CCCCCCC1=C(c2ccc(F)c(O)c2)CCCc2cc(O)ccc21)CCCCS(=O)(=O)CCC(F)(F)F` [Example 110, 8-(4-Fluoro-3-hydroxyphenyl)-9-[6-(methyl{4-[(3,3,3-trifluoropropyl)sulphonyl]butyl}amino)hexyl]-6,7-dihydro-5H-benzo[7]annulen-3-ol]: the pIC50 is 8.30. Turning to `CN(CCCCCCC1=C(c2ccc(F)c(O)c2)CCCc2c1ccc(O)c2F)CCCS(=O)(=O)CCC(F)(F)C(F)(F)F` [Example 116, 4-Fluoro-8-(4-fluoro-3-hydroxyphenyl)-9-[6-(methyl{3-[(3,3,4,4,4-pentafluorobutyl)sulphonyl]propyl}amino)hexyl]-6,7-dihydro-5H-benzo[7]annulen-3-ol], the pIC50 was 7.47. As for `CC(C)(O)CN(CCCCCCC1=C(c2cccc(O)c2)CCCc2cc(O)ccc21)CCC[S+]([O-])CCC(F)(F)F` (racemic) [Example 97, 9-{6-[(2-Hydroxy-2-methylpropyl){3-[(RS)-(3,3,3-trifluoropropyl)sulphinyl]propyl}amino]hexyl}-8-(3-hydroxyphenyl)-6,7-dihydro-5H-benzo[7]annulen-3-ol], the pIC50 is 8.70. In the case of `CN(CCCCCC1=C(c2ccc(S(C)(=O)=O)cc2)CCCc2cc(O)ccc21)CCCS(=O)(=O)CCCC(F)(F)C(F)(F)F` [Example 47, 8-(4-Mesylphenyl)-9-[5-(methyl{3-[(4,4,5,5,5-pentafluoropentyl)sulphonyl]propyl}amino)pentyl]-6,7-dihydro-5H-benzo[7]annulen-3-ol], the pIC50 was 7.47. `CCN(CCCCCCC1=C(c2cccc(O)c2)CCCc2cc(O)ccc21)CCC[S+]([O-])CCCC(F)(F)C(F)(F)F` (racemic) [Example 86, 9-[6-(Ethyl{3-[(RS)-(4,4,5,5,5-pentafluoropentyl)sulphinyl]propyl}amino)hexyl]-8-(3-hydroxyphenyl)-6,7-dihydro-5H-benzo[7]annulen-3-ol]: the pIC50 was 9.00. `CN(CCCCCC1=C(c2ccccc2)CCCc2cc(O)ccc21)CCCC[S+]([O-])CCCC(F)(F)C(F)(F)F` (racemic) [Example 84, 9-[5-(Methyl{4-[(RS)-(4,4,5,5,5-pentafluoropentyl)sulphinyl]butyl}amino)pentyl]-8-phenyl-6,7-dihydro-5H-benzo[7]annulen-3-ol]: the pIC50 is 7.51. Regarding `CC(C)(O)CN(CCCCCCC1=C(c2cccc(O)c2)CCCc2cc(O)ccc21)CCC[S+]([O-])CCCC(F)(F)C(F)(F)F` (racemic) [Example 89, 9-{6-[(2-Hydroxy-2-methylpropyl){3-[(RS)-(4,4,5,5,5-pentafluoropentyl)sulphinyl]propyl}amino]hexyl}-8-(3-hydroxyphenyl)-6,7-dihydro-5H-benzo[7]annulen-3-ol], the pIC50 was 8.70. Turning to `COCCCN(CCCCCCC1=C(c2ccc(F)c(O)c2)CCCc2cc(O)c(F)cc21)CCC[S+]([O-])CCCC(F)(F)C(F)(F)F` (racemic) [Example 132, 2-Fluoro-8-(4-fluoro-3-hydroxyphenyl)-9-{6-[(3-methoxypropyl){3-[(RS)-(4,4,5,5,5-pentafluoropentyl)sulphinyl]propyl}amino]hexyl}-6,7-dihydro-5H-benzo[7]annulen-3-ol], the negative logarithm of the IC50 (pIC50) was 8.30. On to `CN(CCCCCCC1=C(c2ccccc2)CCCc2cc(O)ccc21)CCC[S+]([O-])CCC(F)(F)F` (racemic) [Example 59, 9-[6-(Methyl{3-[(RS)-(3,3,3-trifluoropropyl)sulphinyl]propyl}amino)hexyl]-8-phenyl-6,7-dihydro-5H-benzo[7]annulen-3-ol], for which the pIC50 is 8.00. In the case of `CN(CCCCCCC1=C(c2cccc(O)c2)CCCc2cc(O)ccc21)CCCCCS(=O)(=O)CCCC(F)(F)C(F)(F)F` [Example 17, 8-(3-Hydroxyphenyl)-9-[6-(methyl{5-[(4,4,5,5,5-pentafluoropentyl)sulphonyl]pentyl}amino)hexyl]-6,7-dihydro-5H-benzo[7]annulen-3-ol], the pIC50 is 8.40. Regarding `CN(CCCCCCC1=C(c2ccc(F)c(O)c2)CCCc2c1ccc(O)c2F)CCCC[S+]([O-])CCC(F)(F)F` (racemic) [Example 120, 4-Fluoro-8-(4-fluoro-3-hydroxyphenyl)-9-[6-(methyl{4-[(RS)-(3,3,3-trifluoropropyl)sulphinyl]butyl}amino)hexyl]-6,7-dihydro-5H-benzo[7]annulen-3-ol], the pIC50 was 8.30. Regarding `CC(C)(O)CN(CCCCCCC1=C(c2ccccc2)CCCc2cc(O)ccc21)CCC[S+]([O-])CCCC(F)(F)C(F)(F)F` (racemic) [Example 74, 9-{6-[(2-Hydroxy-2-methylpropyl){3-[(RS)-(4,4,5,5,5-pentafluoropentyl)sulphinyl]propyl}amino]hexyl}-8-phenyl-6,7-dihydro-5H-benzo[7]annulen-3-ol], the pIC50 was 8.52. For `[O-][S+](CCCN(CCCO)CCCCCCC1=C(c2cccc(O)c2)CCCc2cc(O)ccc21)CCC(F)(F)F` (racemic) [Example 96, 8-(3-Hydroxyphenyl)-9-{6-[(3-hydroxypropyl){3-[(RS)-(3,3,3-trifluoropropyl)sulphinyl]propyl}amino]hexyl}-6,7-dihydro-5H-benzo[7]annulen-3-ol], the pIC50 is 8.30.

`CN(CCCCCC1=C(c2ccccc2)CCCc2cc(O)ccc21)CCCCS(=O)(=O)CCC(F)(F)F` [Example 111, 9-[5-(Methyl{4-[(3,3,3-trifluoropropyl)sulphonyl]butyl}amino)pentyl]-8-phenyl-6,7-dihydro-5H-benzo[7]annulen-3-ol]: the pIC50 was 6.60. For `CN(CCCCCCC1=C(c2ccccc2)CCCc2cc(O)ccc21)CCCS(=O)(=O)CCCC(F)(F)C(F)(F)F` [Example 63, 9-[6-(Methyl{3-[(4,4,5,5,5-pentafluoropentyl)sulphonyl]propyl}amino)hexyl]-8-phenyl-6,7-dihydro-5H-benzo[7]annulen-3-ol], the pIC50 was 8.05. Consider `CN(CCCCCCC1=C(c2ccc(F)c(O)c2)CCCc2cc(O)ccc21)CCCCC[S+]([O-])CCCC(F)(F)C(F)(F)F` (racemic) [Example 32, 8-(4-Fluoro-3-hydroxyphenyl)-9-[6-(methyl{5-[(RS)-(4,4,5,5,5-pentafluoropentyl)sulphinyl]pentyl}amino)hexyl]-6,7-dihydro-5H-benzo[7]annulen-3-ol], for which the negative logarithm of the IC50 (pIC50) was 8.52. For the compound `CN(CCCCCC1=C(c2cccnc2)CCCc2cc(O)ccc21)CCCSCCCC(F)(F)C(F)(F)F` [Example 39, 9-[5-(Methyl{3-[(4,4,5,5,5-pentafluoropentyl)sulphanyl]propyl}amino)pentyl]-8-(3-pyridyl)-6,7-dihydro-5H-benzo[7]annulen-3-ol], the pIC50 is 6.84. As for `CCN(CCCCCCC1=C(c2ccccc2)CCCc2cc(O)ccc21)CCCS(=O)(=O)CCC(F)(F)F` [Example 77, 9-[6-(Ethyl{3-[(3,3,3-trifluoropropyl)sulphonyl]propyl}amino)hexyl]-8-phenyl-6,7-dihydro-5H-benzo[7]annulen-3-ol], the pIC50 was 7.21. Then `CN(CCCCCCC1=C(c2ccccc2)CCCc2c1ccc(O)c2Cl)CCCCS(=O)(=O)CCCC(F)(F)C(F)(F)F` [Example 103, 4-Chloro-9-[6-(methyl{4-[(4,4,5,5,5-pentafluoropentyl)sulphonyl]butyl}amino)hexyl]-8-phenyl-6,7-dihydro-5H-benzo[7]annulen-3-ol], with 7.59.
